Assay results from BigSolDB 2.1.

COC(=O)C1=C(C)NC(C)=C(C(=O)OCC(C)C)C1c1ccccc1[N+](=O)[O-] (stereo not given)
solubility (mole fraction)
Details | in acetonitrile | in cyclohexane | in ethanol | in ethyl acetate | in isopropanol | in n-butanol | in n-propanol | in toluene | in water
278.15 K | 0.00849 | – | 0.00278 | 0.0166 | 0.00467 | 0.00573 | 0.00378 | 0.00154 | 4e-06
283.15 K | 0.0102 | 5.7e-05 | 0.00348 | 0.0188 | 0.00563 | 0.00671 | 0.00455 | 0.00183 | 5e-06
288.15 K | 0.012 | 7.3e-05 | 0.0043 | 0.0215 | 0.00669 | 0.00795 | 0.00545 | 0.00218 | 7e-06
293.15 K | 0.0144 | 9.1e-05 | 0.00529 | 0.0246 | 0.00796 | 0.00938 | 0.00657 | 0.0026 | 9e-06
298.15 K | 0.0169 | 0.000111 | 0.00648 | 0.0278 | 0.00935 | 0.0111 | 0.0078 | 0.00309 | 1.2e-05
303.15 K | 0.0197 | 0.000137 | 0.00789 | 0.0316 | 0.011 | 0.0129 | 0.00941 | 0.00366 | 1.5e-05
308.15 K | 0.0232 | 0.000164 | 0.00935 | 0.0358 | 0.0129 | 0.0149 | 0.0111 | 0.00428 | 1.9e-05
313.15 K | 0.0271 | 0.000198 | 0.0112 | 0.0401 | 0.0152 | 0.0173 | 0.013 | 0.005 | 2.4e-05
318.15 K | 0.0317 | 0.000237 | 0.0134 | 0.0457 | 0.0178 | 0.0202 | 0.0155 | 0.00588 | 3e-05
